Among the data in BindingDB's records for doi:10.1021/jm950717a (Bristol-Myers Squibb, 1996) are IC50 values, retold here.

pIC50: −log10 of the molar value.

This experiment has as its target T1, Dimer of Gag-Pol polyprotein [489-587] (Human immunodeficiency virus 1, UniProt P12497).
T1 construct: 489-587
As to the kind of experiment: Protease Inhibition Assay. The following applies: pH 5.5; 37 °C. On the procedure: IC50 values are determined by inhibition of the cleavage of the peptidic substrate [V-S-Q-N-(beta-naphthylalanine)-P-I-V]. The IC50 value represents the concentration of inhibitor required to inhibit cleavage of substrate by 50%. The assay is performed by addition of purified enzyme to a mixture of inhibitor and the above substrate at pH 5.5. The reaction medium is incubated for 30 min at 37 °C followed by quenching with H3-PO4 and then analyzed by reverse phase HPLC UV (220 nm) detection.
Take `CC(C)(C)OC(=O)N[C@@H](Cc1ccccc1)[C@H](O)CNC[C@@H](O)[C@H](Cc1ccc(OCCN2CCOCC2)cc1)NC(=O)OC(C)(C)C` [tert-butyl N-[(2S,3R)-4-{[(2R,3S)-3-{[(tert-butoxy)carbonyl]amino}-2-hydroxy-4-{4-[2-(morpholin-4-yl)ethoxy]phenyl}butyl]amino}-3-hydroxy-1-phenylbutan-2-yl]carbamate]: the negative-log IC50 (pIC50) was 7.00. Molecule `CC(C)(C)OC(=O)N[C@@H](Cc1ccccc1)[C@H](O)CNC[C@@H](O)[C@H](Cc1ccc(OCC(O)c2cccnc2)cc1)NC(=O)OC(C)(C)C` (stereo partly drawn) [[1S-[1R*,2S*(2S*,3R*)]]-[3-[[3-[[(1,1-Dimethylethoxy)-carbonyl]amino]-2-hydroxy-4-[4-[2-hydroxy-2-(3-pyridinyl)ethoxy]phenyl]butyl]amino]-2-hydroxy-1-] gave a negative logarithm of the IC50 (pIC50) of 6.96. `CC(C)(C)OC(=O)N[C@@H](Cc1ccccc1)[C@H](O)CNC[C@@H](O)[C@H](Cc1ccc(OCC(=O)N2CCOCC2)cc1)NC(=O)OC(C)(C)C` [tert-butyl N-[(2S,3R)-4-{[(2R,3S)-3-{[(tert-butoxy)carbonyl]amino}-2-hydroxy-4-{4-[2-(morpholin-4-yl)-2-oxoethoxy]phenyl}butyl]amino}-3-hydroxy-1-phenylbutan-2-yl]carbamate]: the negative logarithm of the IC50 (pIC50) is 7.00.
